In patent publication US9790230B2 (Hoffmann-La Roche Inc., priority 2015, dated 2017) one finds Ki and Kd data, which are given here for 31 compounds.

Read-outs that look alike come from different tables or passages of the source.

One experiment has as its target rat TAAR1 (Rattus norvegicus (Rat), UniProt Q923Y9). In words: Radioligand binding assay on rat TAAR1.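 Also: membranes from HEK293 cells stably transfected with rat TAAR1, tritiated TAAR1 radioligand, 1 h incubation at 4 °C, nonspecific binding determined with excess unlabeled ligand.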
In a further experiment the target is mouse TAAR1 (Mus musculus (Mouse), UniProt Q923Y8). Description: Radioligand binding assay on mouse TAAR1.
mouse TAAR1, sequence (Q923Y8 whole entry): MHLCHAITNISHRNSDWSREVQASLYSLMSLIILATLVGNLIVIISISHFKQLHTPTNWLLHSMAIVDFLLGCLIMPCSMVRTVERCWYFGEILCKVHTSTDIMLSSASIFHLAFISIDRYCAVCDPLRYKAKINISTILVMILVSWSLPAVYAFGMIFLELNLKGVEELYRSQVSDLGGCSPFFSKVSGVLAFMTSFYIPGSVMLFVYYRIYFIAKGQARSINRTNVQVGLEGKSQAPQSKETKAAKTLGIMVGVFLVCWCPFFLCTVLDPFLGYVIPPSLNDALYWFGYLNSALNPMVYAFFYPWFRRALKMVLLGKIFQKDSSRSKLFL
[1] abbreviates: read-out: Ki (μM) rat, rat TAAR1, HEK-293 membranes, second value of cell mouse/rat.

rat TAAR1, sequence (Q923Y9 whole entry): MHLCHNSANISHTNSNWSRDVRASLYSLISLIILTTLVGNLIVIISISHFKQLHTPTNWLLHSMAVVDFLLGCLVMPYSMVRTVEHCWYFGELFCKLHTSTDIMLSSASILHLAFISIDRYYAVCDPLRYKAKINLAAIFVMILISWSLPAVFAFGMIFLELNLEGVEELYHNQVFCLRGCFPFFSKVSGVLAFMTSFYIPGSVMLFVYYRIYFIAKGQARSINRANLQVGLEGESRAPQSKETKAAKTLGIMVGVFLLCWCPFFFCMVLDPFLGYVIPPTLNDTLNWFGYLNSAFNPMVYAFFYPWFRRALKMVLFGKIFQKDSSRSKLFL
Procedure for mouse TAAR1: Radioligand Binding Assay on Mouse TAAR1
(§1) Membrane Preparation and Radioligand Binding.
HEK-293 cells stably expressing mouse TAAR1 were maintained at 37° C. and 5% CO2 in DMEM high glucose medium, containing fetal calf serum (10%, heat inactivated for 30 min at 56° C.), penicillin/streptomycin (1%), and 375 μg/ml geneticin (Gibco). Cells were released from culture flasks using trypsin/EDTA, harvested, washed twice with ice-cold PBS (without Ca^2+ and Mg^2+), pelleted at 1'000 rpm for 5 min at 4° C., frozen and stored at −80° C. Frozen pellets were suspended in 20 ml HEPES-NaOH (20 mM, pH 7.4) containing 10 mM EDTA and homogenized with a Polytron (PT 6000, Kinematica) at 14'000 rpm for 20 s. The homogenate was centrifuged at 48'000×g for 30 min at 4° C. Subsequently, the supernatant was removed and discarded, and the pellet resuspended in 20 ml HEPES-NaOH (20 mM, pH 7.4) containing 0.1 mM EDTA using the Polytron (20 s at 14'000 rpm). This procedure was repeated and the final pellet resuspended in HEPES-NaOH containing 0.1 mM EDTA and homogenized using the Polytron. Typically, aliquots of 2 ml membrane portions were stored at −80° C. With each new membrane batch the dissociation constant (Kd) was determined via a saturation curve. The TAAR1 radioligand ^3[H]—(S)-4-[(ethyl-phenyl-amino)-methyl]-4,5-dihydro-oxazol-2-ylamine (described in WO 2008/098857) was used at a concentration equal to the calculated Kd value, that was usually around 0.7 nM, resulting in the binding of approximately 0.5% of the radioligand and a specific binding representing approximately 70% of the total binding. Nonspecific binding was defined as the amount of ^3[H]—(S)-4-[(ethyl-phenyl-amino)-methyl]-4,5-dihydro-oxazol-2-ylamine bound in the presence of 10 M unlabeled ligand. All compounds were tested at a broad range of concentrations (10 pM to 10 μM) in duplicates. […] The 96 deep well plates were incubated for 1 hr at 4° C. Incubations were terminated by rapid filtration through Unifilter-96 plates (Packard Instrument Company) and glass filters GF/C (Perkin Elmer) presoaked for 1 hr in polyethylenimine (0.3%) and washed 3 times with 1 ml of cold binding buffer. After addition of 45 μl of Microscint 40 (PerkinElmer) the Unifilter-96 plate was sealed and after 1 hr the radioactivity counted using a TopCount Microplate Scintillation Counter (Packard Instrument Company).
Procedure for rat TAAR1: as §1
HEK-293 cells stably expressing rat TAAR1 were maintained at 37° C. and 5% CO2 in DMEM high glucose medium, containing fetal calf serum (10%, heat inactivated for 30 min at 56° C.), penicillin/streptomycin (1%), and 375 μg/ml geneticin (Gibco). Cells were released from culture flasks using trypsin/EDTA, harvested, washed twice with ice-cold PBS (without Ca^2+ and Mg^2+), pelleted at 1'000 rpm for 5 min at 4° C., frozen and stored at −80° C. Frozen pellets were suspended in 20 ml HEPES-NaOH (20 mM, pH 7.4) containing 10 mM EDTA and homogenized with a Polytron (PT 6000, Kinematica) at 14′000 rpm for 20 s. The homogenate was centrifuged at 48'000×g for 30 min at 4° C. Subsequently, the supernatant was removed and discarded, and the pellet resuspended in 20 ml HEPES-NaOH (20 mM, pH 7.4) containing 0.1 mM EDTA using the Polytron (20 s at 14'000 rpm). This procedure was repeated and the final pellet resuspended in HEPES-NaOH containing 0.1 mM EDTA and homogenized using the Polytron. Typically, aliquots of 2 ml membrane portions were stored at −80° C. With each new membrane batch the dissociation constant (Kd) was determined via a saturation curve. […] Nonspecific binding was defined as the amount of 3 [H]—(S)-4-[(ethyl-phenyl-amino)-methyl]-4,5-dihydro-oxazol-2-ylamine bound in the presence of 10 M unlabeled ligand. All compounds were tested at a broad range of concentrations (10 pM to 10 μM) in duplicates. […] The 96 deep well plates were incubated for 1 hr at 4° C. Incubations were terminated by rapid filtration through Unifilter-96 plates (Packard Instrument Company) and glass filters GF/C (Perkin Elmer) presoaked for 1 hr in polyethylenimine (0.3%) and washed 3 times with 1 ml of cold binding buffer. After addition of 45 μl of Microscint 40 (PerkinElmer) the Unifilter-96 plate was sealed and after 1 hr the radioactivity counted using a TopCount Microplate Scintillation Counter (Packard Instrument Company).

With `O=C(Nc1ccc([C@H]2O[C@@H]3CN[C@H]2C3)cc1)c1ccc(OCC(F)(F)F)cn1` [Example 51, N-[4-[(1S,3R,4S)-2-Oxa-5-azabicyclo[2.2.1]heptan-3-yl]phenyl]-5-(2,2,2-trifluoroethoxy)pyridine-2-carboxamide], the values for the Ki at rat TAAR1 and on mouse TAAR1 were 0.0438 µM and 0.0034 µM, respectively.
In the same order, the values of `O=C(COCCC(F)(F)F)Nc1ccc([C@@H]2O[C@H]3CN[C@@H]2C3)cc1` [Example 90, N-[4-[(1R,3S,4R)-2-Oxa-5-azabicyclo[2.2.1]heptan-3-yl]phenyl]-2-(3,3,3-trifluoropropoxy)acetamide] are 0.398 µM and 0.015 µM.
Taken in the same sequence, the figures for `O=C(Nc1ccc(Cl)cc1)Nc1cccc([C@@H]2O[C@H]3CN[C@@H]2C3)c1` [Example 4, 1-(4-Chlorophenyl)-3-[3-[(1R,3S,4R)-2-oxa-5-azabicyclo[2.2.1]heptan-3-yl]phenyl]urea] were 0.0102 µM and 1.28 µM.
In the same order, the values of `CCOc1ccc(C(=O)Nc2ccc([C@H]3O[C@@H]4CN[C@H]3C4)cc2)cn1` [Example 15, 6-Ethoxy-N-[4-[(1S,3R,4S)-2-oxa-5-azabicyclo[2.2.1]heptan-3-yl]phenyl]pyridine-3-carboxamide] are 1.9 µM and 0.0155 µM.
Regarding `COCCCNc1ccc([C@H]2O[C@@H]3CN[C@H]2C3)cc1` [Example 65, N-(3-Methoxypropyl)-4-[(1S,3R,4S)-2-oxa-5-azabicyclo[2.2.1]heptan-3-yl]aniline], the figures for the inhibition constant Ki at rat TAAR1 and at mouse TAAR1 were 0.0702 µM and 2.07 µM, respectively.
Taken in the same sequence, the figures for `CCCc1n[nH]c(C(=O)Nc2ccc([C@@H]3O[C@H]4CN[C@@H]3C4)cc2)c1Cl` [Example 68, 4-Chloro-N-[4-[(1R,3S,4R)-2-oxa-5-azabicyclo[2.2.1]heptan-3-yl]phenyl]-3-propyl-1H-pyrazole-5-carboxamide] were 0.0179 µM and 0.0031 µM.
In the same order, the values of `FC(F)(F)COc1nccc(Nc2ccc([C@@H]3O[C@H]4CN[C@@H]3C4)cc2)n1` [Example 83, N-[4-[(1R,3S,4R)-2-Oxa-5-azabicyclo[2.2.1]heptan-3-yl]phenyl]-2-(2,2,2-trifluoroethoxy)pyrimidin-4-amine] are 0.19 µM and 0.0097 µM.
Consider `O=C(Nc1ccc(C(F)(F)F)cc1)Nc1cccc([C@@H]2O[C@H]3CN[C@@H]2C3)c1` [Example 3, 1-[3-[(1R,3S,4R)-2-Oxa-5-azabicyclo[2.2.1]heptan-3-yl]phenyl]-3-[4-(trifluoromethyl)phenyl]urea], for which the Ki came out at 0.0029 µM on rat TAAR1 and 0.986 µM at mouse TAAR1.
In the same order, the values of `CCOc1ccc(NC(=O)c2ccc([C@H]3O[C@@H]4CN[C@H]3C4)cc2)cc1` [Example 58, N-(4-Ethoxyphenyl)-4-[(1S,3R,4S)-2-oxa-5-azabicyclo[2.2.1]heptan-3-yl]benzamide] are over 10 µM and 0.0013 µM.
`CCCc1c(Cl)c(C(=O)Nc2ccc([C@H]3O[C@@H]4CN[C@H]3C4)cc2)nn1C` [Example 48, 4-Chloro-1-methyl-N-[4-[(1S,3R,4S)-2-oxa-5-azabicyclo[2.2.1]heptan-3-yl]phenyl]-5-propyl-pyrazole-3-carboxamide]: the Ki on rat TAAR1 stood at 1.35 µM; at mouse TAAR1 it was 0.0114 µM.
In the same order, the values of `O=C(COCC(F)(F)F)Nc1ccc([C@@H]2O[C@H]3CN[C@@H]2C3)cc1` [Example 73, N-[4-[(1R,3S,4R)-2-Oxa-5-azabicyclo[2.2.1]heptan-3-yl]phenyl]-2-(2,2,2-trifluoroethoxy)acetamide] are 0.857 µM and 0.0177 µM.
In the same order, the values of `FC(F)(F)c1cc(Nc2ccc([C@H]3O[C@@H]4CN[C@H]3C4)cc2)ccn1` [Example 35, N-[4-[(1S,3R,4S)-2-Oxa-5-azabicyclo[2.2.1]heptan-3-yl]phenyl]-2-(trifluoromethyl)pyridin-4-amine] are 0.819 µM and 0.011 µM.
`CC(C)c1cc(C(=O)Nc2ccc([C@@H]3O[C@H]4CN[C@@H]3C4)cc2)[nH]n1` [Example 75, 3-Isopropyl-N-[4-[(1R,3S,4R)-2-oxa-5-azabicyclo[2.2.1]heptan-3-yl]phenyl]-1H-pyrazole-5-carboxamide]: the Ki was 0.239 µM at rat TAAR1 and 0.0099 µM at mouse TAAR1.
In the same order, the values of `FC(F)(F)c1nccc(Nc2ccc([C@H]3O[C@@H]4CN[C@H]3C4)cc2)n1` [Example 21, N-[4-[(1S,3R,4S)-2-Oxa-5-azabicyclo[2.2.1]heptan-3-yl]phenyl]-2-(trifluoromethyl)pyrimidin-4-amine] are 0.633 µM and 0.0197 µM.
In the same order, the values of `Fc1ccccc1[C@@H]1O[C@H]2CN[C@@H]1C2` [Example 106, (1R,3S,4R)-3-(2-Fluorophenyl)-2-oxa-5-azabicyclo[2.2.1]heptane] are 0.836 µM and 1.03 µM.
In the same order, the values of `CCOc1n[nH]c(C(=O)Nc2ccc([C@H]3O[C@@H]4CN[C@H]3C4)cc2)c1Cl` [Example 45, 4-Chloro-3-ethoxy-N-[4-[(1S,3R,4S)-2-oxa-5-azabicyclo[2.2.1]heptan-3-yl]phenyl]-1H-pyrazole-5-carboxamide] are 0.21 µM and 0.0042 µM.
For the compound `O=C(Nc1ccc([C@@H]2O[C@H]3CN[C@@H]2C3)cc1)c1[nH]nc(C2CC2)c1Cl` [Example 82, 4-Chloro-3-cyclopropyl-N-[4-[(1R,3S,4R)-2-oxa-5-azabicyclo[2.2.1]heptan-3-yl]phenyl]-11H-pyrazole-5-carboxamide], the Ki at rat TAAR1 (setting [1]) turned out to be 0.0339 µM; at mouse TAAR1 (read-out: Ki (μM) mouse, mouse TAAR1, HEK-293 membranes, first value of cell mouse/rat), 0.0035 µM.
`FC(F)(F)c1ccc(CNc2ccc([C@H]3O[C@@H]4CN[C@H]3C4)cc2)cc1` [Example 39, 4-[(1S,3R,4S)-2-Oxa-5-azabicyclo[2.2.1]heptan-3-yl]-N-[[4-(trifluoromethyl)phenyl]methyl]aniline]: the Ki at rat TAAR1 is 0.359 µM; on mouse TAAR1 it was 0.0069 µM.
`CCCCc1cc(C(=O)Nc2ccc([C@@H]3O[C@H]4CN[C@@H]3C4)cc2)[nH]n1` [Example 93, 3-Butyl-N-[4-[(1R,3S,4R)-2-oxa-5-azabicyclo[2.2.1]heptan-3-yl]phenyl]-1H-pyrazole-5-carboxamide]: the figures for the Ki on rat TAAR1 and on mouse TAAR1 were 0.0803 µM and 0.0042 µM, respectively.
For `O=C(Nc1ccc([C@@H]2O[C@H]3CN[C@@H]2C3)cc1)c1ccc(Cl)cc1` [Example 7, 4-Chloro-N-[4-[(1R,3S,4R)-2-oxa-5-azabicyclo[2.2.1]heptan-3-yl]phenyl]benzamide], the Ki is 0.106 µM on rat TAAR1 and 0.0044 µM on mouse TAAR1.
Turning to `O=C(Nc1ccc([C@H]2O[C@@H]3CN[C@H]2C3)cc1)c1cnc(C2CC2)nc1` [Example 18, 2-Cyclopropyl-N-[4-[(1S,3R,4S)-2-oxa-5-azabicyclo[2.2.1]heptan-3-yl]phenyl]pyrimidine-5-carboxamide], the Ki came to 2.03 µM at rat TAAR1 and 0.038 µM at mouse TAAR1.
Taken in the same sequence, the figures for `O=C(Nc1ccc([C@H]2O[C@@H]3CN[C@H]2C3)cc1)c1[nH]nc(C2CC2)c1Cl` [Example 37, 4-Chloro-3-cyclopropyl-N-[4-[(1S,3R,4S)-2-oxa-5-azabicyclo[2.2.1]heptan-3-yl]phenyl]-1H-pyrazole-5-carboxamide] were 2.67 µM and 0.0613 µM.
Taken in the same sequence, the figures for `c1ccc([C@@H]2O[C@H]3CN[C@@H]2C3)cc1` [Example 6, (1R,3S,4R)-3-Phenyl-2-oxa-5-azabicyclo[2.2.1]heptane] were 0.814 µM and 1.54 µM.
In the same order, the values of `Brc1ccc([C@H]2O[C@@H]3CN[C@H]2C3)cc1` [Example 53, (1S,3R,4S)-3-(4-Bromophenyl)-2-oxa-5-azabicyclo[2.2.1]heptane] are 0.0052 µM and 0.0034 µM.
With `O=C(Nc1ccc([C@H]2O[C@@H]3CN[C@H]2C3)cc1)c1ccc(OCC(F)(F)F)nc1` [Example 16, N-[4-[(1S,3R,4S)-2-Oxa-5-azabicyclo[2.2.1]heptan-3-yl]phenyl]-6-(2,2,2-trifluoroethoxy)pyridine-3-carboxamide], the results for the Ki on rat TAAR1 and on mouse TAAR1 were 0.142 µM and 0.0118 µM, respectively.
Taken in the same sequence, the figures for `FC(F)(F)COc1nccc(Nc2ccc([C@H]3O[C@@H]4CN[C@H]3C4)cc2)n1` [Example 80, N-[4-[(1S,3R,4S)-2-Oxa-5-azabicyclo[2.2.1]heptan-3-yl]phenyl]-2-(2,2,2-trifluoroethoxy)pyrimidin-4-amine] were 1.08 µM and 0.0077 µM.
For the compound `CCN(C[C@H]1COC(N)=N1)c1ccccc1` [reference compound], the Kd on rat TAAR1 (read-out: dissociation constant (Kd) of the TAAR1 radioligand, rat TAAR1 membranes, saturation curve, usual value) is about 2.3 nM; at mouse TAAR1 (read-out: dissociation constant (Kd) of the TAAR1 radioligand, mouse TAAR1 membranes, saturation curve, usual value) it was about 0.7 nM.
For `CCCCNc1ccc([C@H]2O[C@@H]3CN[C@H]2C3)cc1` [Example 41, N-Butyl-4-[(1S,3R,4S)-2-oxa-5-azabicyclo[2.2.1]heptan-3-yl]aniline], the Ki was determined as 2.83 µM on rat TAAR1 (setting [1]) and 0.0222 µM at mouse TAAR1.
Regarding `O=C(CCC(F)(F)F)Nc1ccc([C@@H]2O[C@H]3CN[C@@H]2C3)cc1` [Example 91, 4,4,4-Trifluoro-N-[4-[(1R,3S,4R)-2-oxa-5-azabicyclo[2.2.1]heptan-3-yl]phenyl]butanamide], the Ki at rat TAAR1 was over 1.45 µM; at mouse TAAR1 it was 0.031 µM.
Taken in the same sequence, the figures for `O=C(Nc1ccc([C@@H]2O[C@H]3CN[C@@H]2C3)cc1)c1ccnc(C(F)(F)F)n1` [Example 81, N-[4-[(1R,3S,4R)-2-Oxa-5-azabicyclo[2.2.1]heptan-3-yl]phenyl]-2-(trifluoromethyl)pyrimidine-4-carboxamide] were 0.189 µM and 0.0271 µM.
Taken in the same sequence, the figures for `FC(F)(F)Oc1ccc(CNc2ccc([C@H]3O[C@@H]4CN[C@H]3C4)cc2)cc1` [Example 52, 4-[(1S,3R,4S)-2-Oxa-5-azabicyclo[2.2.1]heptan-3-yl]-N-[[4-(trifluoromethoxy)phenyl]methyl]aniline] were 0.194 µM and 0.0043 µM.

The Ki is a dissociation constant, usually derived from enzyme kinetics or from competition with a known ligand. Broadly, the Kd is a measure of binding affinity in units of concentration.
